EP1077967B1, “BIPHENYL OXO-ACETIC ACIDS USEFUL IN THE TREATMENT OF INSULIN RESISTANCE AND HYPERGLYCEMIA” (Wyeth, priority 1998, dated 1999)
Where a name gives a salt, the structure may show the parent alone.

biological target: T1, Human recombinant PTP1B (Homo sapiens, UniProt P18031); test: Inhibition of tri-phosphorylated insulin receptor dodecaphosphopeptide dephosphorylation by hPTP1B (malachite green); type: biochemical; settings: not given
T1 construct: made in house
T1 sequence (P18031 1-435): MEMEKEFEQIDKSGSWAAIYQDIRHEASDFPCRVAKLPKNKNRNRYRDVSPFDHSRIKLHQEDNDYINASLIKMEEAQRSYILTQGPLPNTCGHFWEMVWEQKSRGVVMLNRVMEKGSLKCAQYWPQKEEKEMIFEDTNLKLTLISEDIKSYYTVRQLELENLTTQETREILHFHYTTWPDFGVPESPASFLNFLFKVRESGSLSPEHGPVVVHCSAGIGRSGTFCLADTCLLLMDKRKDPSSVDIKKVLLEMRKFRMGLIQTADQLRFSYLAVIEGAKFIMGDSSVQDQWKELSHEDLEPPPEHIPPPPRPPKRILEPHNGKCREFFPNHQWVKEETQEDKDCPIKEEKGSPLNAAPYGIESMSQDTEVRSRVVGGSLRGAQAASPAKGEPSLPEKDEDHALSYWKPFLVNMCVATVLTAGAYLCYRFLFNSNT

Compound	IC50 [nM]
O=C(c1ccccc1)c1oc2ccccc2c1-c1ccc(-c2ccc(O[C@H](Cc3ccccc3)C(=O)O)c([N+](=O)[O-])c2)cc1 [Example 66, (2R)-2-[4'-(2-Benzoyl-benzofuarn-3-yl)-3-nitro-biphenyl-4-yloxy]-3-phenyl-propionic acid]	788

same assay, conditions: compound at 2.5 uM; read-out: change of PTP1B activity (percent of phosphatase control)

inhibition at 2.5 µM [%]	Compound
41	O=C(O)[C@H](Cc1ccccc1)Oc1ccc(-c2ccc(-c3nc4ccccc4n3Cc3ccccc3)cc2)cc1 [Example 70, (2S)-2-[4'-(1-Benzyl-1H-benzimidazol-2-yl)-biphenyl-4-yloxy]-3-phenyl-propionic acid]
43	CC(=O)c1ccc(-c2ccc(-c3ccc(O[C@@H](Cc4ccccc4)C(=O)O)cc3)cc2)s1 [Example 71, (2S)-2-[4'-(5-acetyl-thiophen-2-yl)-biphenyl-4-yloxy]-3-phenyl-propionic acid sodium salt]

same assay, conditions: recombinant PTP1B, dodecaphosphopeptide substrate

IC50 [nM]	Compound
80	COc1ccc(-c2cc(-c3ccc(-c4c(Cc5ccccc5)sc5ccccc45)cc3)ccc2OCC(=O)O)cc1 [Example 59]
181	O=C(O)c1ccccc1C(=O)NCC[C@@H](Oc1c(Br)cc(-c2ccc(-c3c(Cc4ccccc4)sc4ccccc34)cc2)cc1Br)C(=O)O [Example 45, N-{(3R)-3-[4'-(2-benzyl-benzo[b]thiophen-3-yl)-3,5-dibromo-biphenyl-4-yloxy]-3-carboxy-propyl]-phthalamic acid]
8700	Ammonium molybdate tetrahydrate [reference compound]
133	CC[C@H](Oc1c(Br)cc(-c2ccc(-c3c(Cc4ccccc4)oc4ccccc34)cc2)cc1Br)C(=O)O [Example 53, (2S)-2-[4'-(2-benzyl-benzofuran-3-yl)-3,5-dibromo-biphenyl-4-yloxy]-butyric acid]
54	CC(C)C[C@@H](Oc1c(Br)cc(-c2ccc(-c3c(Cc4ccccc4)oc4ccccc34)cc2)cc1Br)C(=O)O [Example 51, (2R)-2-[4'-(2-benzyl-benzofuran-3-yl)-3,5-dibromo-biphenyl-4-yloxy]-4-methyl-pentanoic acid]
290	O=C(O)[C@H](CCc1ccccc1)Oc1c(Br)cc(-c2ccc(-c3c(Cc4ccccc4)sc4ccccc34)cc2)cc1Br [Example 41, (2S)-2-[4'-(2-Benzyl-benzo[b]-thiophen-3-yl)-3,5-dibromo-biphenyl-4-yloxy]-4-phenyl-butyric acid]
1160	O=C(O)C(Cc1ccccc1)Oc1ccc(-c2ccc(-c3c(Cc4nccs4)sc4ccccc34)cc2)cc1 (centres unmarked) [Example 30, 3-Phenyl-2-[4'-(2-thiazole-2-ylmethyl-benzo[b]thiophene-3-yl)-biphenyl-4-yloxy]-propionic acid]
105	O=C(O)COc1ccc(-c2ccc(-c3c(Cc4ccccc4)sc4ccccc34)cc2)cc1-c1ccccc1 [Example 62]
100	COc1cc(-c2cc(-c3ccc(-c4c(Cc5ccccc5)sc5ccccc45)cc3)ccc2OCC(=O)O)cc(OC)c1OC [Example 61]
25	COc1cccc(-c2cc(-c3ccc(-c4c(Cc5ccccc5)sc5ccccc45)cc3)cc(-c3cccc(OC)c3)c2OCC(=O)O)c1 [Example 58]
28	COc1cccc(-c2cc(-c3ccc(-c4c(Cc5ccccc5)sc5ccccc45)cc3)cc(Br)c2OCC(=O)O)c1 [Example 57]
362	O=C(O)COc1ccc(-c2ccc(-c3c(Cc4ccccc4)sc4ccccc34)cc2)cc1Br [Example 40, [4'-(2-Benzyl-benzo[b]thiophene-3-yl)-3-bromo-biphenyl-4-yloxy]-acetic acid]
103	O=C(O)C(Cc1ccccc1)Oc1ccc(-c2ccc(-c3c(C(O)c4ccccc4)oc4ccccc34)cc2)cc1[N+](=O)[O-] [Example 67, (2R)-2-{4'-[2-(Hydroxy-phenyl-methyl)-benzofuarn-3-yl)-3-nitro-biphenyl-4-yloxy]-3-phenyl-propionic acid]
454	Oc1c(Br)cc(-c2ccc(-c3c(Cc4ccccc4)sc4ccccc34)cc2)cc1Br [Example 35, 4'-(2-Benzyl-benzo[b]thiophen-3-yl)-3,5-dibromo-biphenyl-4-ol]
